{"source": "patent US20130236656A1", "about": "“SELF-REDUCED METAL COMPLEX INKS SOLUBLE IN POLAR PROTIC SOLVENTS AND IMPROVED CURING METHODS” (LIQUID X PRINTED METALS, INC., priority 2012, published 2013)", "conditions": "isolated solid"}
{"smiles": "CC(C)C(=O)[O-].NCCN.[Ag+]", "note": "[ethylenediamine silver isobutyrate]", "values": [{"measurement": "hygroscopicity (hydroscopic [sic])", "result": "hydroscopic"}]}
